Like-named read-outs stand apart in the source and are kept apart here.
Target: T1, human GnRH receptor (Homo sapiens, UniProt P30968)
T1 construct: expressed in transfected cells; host or cells: HEK 293 (hGnRH-R/293, from Dr. Stuart Sealfon)
T1 sequence (P30968 1-328): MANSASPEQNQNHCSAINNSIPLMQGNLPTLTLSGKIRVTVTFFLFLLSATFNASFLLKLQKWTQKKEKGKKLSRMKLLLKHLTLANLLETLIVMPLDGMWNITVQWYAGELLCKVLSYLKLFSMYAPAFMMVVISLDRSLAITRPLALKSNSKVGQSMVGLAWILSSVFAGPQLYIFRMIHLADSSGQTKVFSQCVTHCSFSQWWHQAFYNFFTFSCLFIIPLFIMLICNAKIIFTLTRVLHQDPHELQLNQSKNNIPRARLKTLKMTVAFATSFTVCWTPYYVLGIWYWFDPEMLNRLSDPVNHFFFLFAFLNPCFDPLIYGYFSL
Assay: Radioligand binding, 125I-GnRH-A displacement, membranes of HEK 293 cells with human GnRH receptor
Procedure: All compounds were diluted in 1% DMSO (final assay concentration) in binding assay buffer. […] Reactions were terminated by rapid filtration onto 96-well Packard GF/C filters soaked in 0.1% polyethyleneimine. Filters were washed three times with PBS buffer, dried and counted on a Packard Topcount by liquid scintillation counting.
Assay conditions were identical for assessing compound activities at other species. […] IC50 values for control peptides and test compounds were calculated utilizing GraphPad Prism™ software.
Crude compounds were tested using the competitive radioligand binding assay described above.
The reaction mixture was vortexed and incubated for 1 min at room temperature. After one min, the mixture was vortexed and allowed to incubate for an additional minute. 2 ml of 0.5 M acetic acid/1% BSA was added to the reaction tube and the mixture was added to a C18 Sep-Pak cartridge. The cartridge was washed with subsequent washes of 5 ml H2O and 5 ml 0.5M acetic acid and then eluted with 5×1 ml of 60% CH3CN/40% 0.5M acetic acid. The eluate was diluted with 3× volume of HPLC buffer A (0.1% TFA in H2O) and loaded onto a C18 column. The iodinated product was eluted over 20-25 min with a gradient of 25-100% CH3CN containing 0.1% TFA. The radioactive fractions (750 ed/fraction) are collected into clean polypropylene tubes containing 100 μl of 10% BSA. Fractions were assessed for biological activity by radioligand binding.
S%R is the substrate remaining.

[1] = 1 uM, read-out: % Inhib. @ 1 uM hGnRH
[2] = 1 h, repeat of % Inhib. at 1 uM, read-out: Repeats @ 1 uM hGnRH

Row | inhibition at 1 µM [1] | inhibition at 1 µM [2] | Compound
1 | -25% | 3% | Cc1cc2c(cc1Cc1ccc(C(=O)N3CCN(c4cccc(C(F)(F)F)c4)CC3)o1)C(C)(C)CCC2(C)C
2 | 15% | 16% | CCOC(=O)N1CCC(NC(=O)c2ccc(Cc3cc4c(cc3C)C(C)(C)CCC4(C)C)o2)CC1
3 | 19% | 29% | Cc1cc2c(cc1Cc1ccc(C(=O)NCCc3ccc(O)cc3)o1)C(C)(C)CCC2(C)C
4 | 15% | 21% | Cc1cc2c(cc1Cc1ccc(C(=O)NCCc3cccc(Cl)c3)o1)C(C)(C)CCC2(C)C
5 | -4% | -7% | Cc1cc2c(cc1Cc1ccc(C(=O)NCCN(C)C)o1)C(C)(C)CCC2(C)C
6 | 40% | 41% | Cc1cc2c(cc1Cc1ccc(C(=O)NCc3ccc(C(F)(F)F)cc3)o1)C(C)(C)CCC2(C)C
7 | -22% | 9% | Cc1cc2c(cc1Cc1ccc(C(=O)N3CCN(c4cccc(Cl)c4)CC3)o1)C(C)(C)CCC2(C)C
8 | -20% | -7% | Cc1cc2c(cc1Cc1ccc(C(=O)N3CCN(c4ccc(Cl)c(Cl)c4)CC3)o1)C(C)(C)CCC2(C)C
9 | -24% | 9% | Cc1cc2c(cc1Cc1ccc(C(=O)N3CCN(c4ccc(F)cc4)CC3)o1)C(C)(C)CCC2(C)C
10 | -18% | 6% | Cc1cc2c(cc1Cc1ccc(C(=O)N3CCN(c4ccc([N+](=O)[O-])cc4)CC3)o1)C(C)(C)CCC2(C)C
11 | 24% | 3% | Cc1cc2c(cc1Cc1ccc(C(=O)N3CCN(c4ccccc4F)CC3)o1)C(C)(C)CCC2(C)C
12 | -6% | 0% | Cc1cc2c(cc1Cc1ccc(C(=O)NC3COC(C)(C)O[C@H]3c3ccccc3)o1)C(C)(C)CCC2(C)C (stereo partly shown)
13 | 26% | 34% | Cc1cc2c(cc1Cc1ccc(C(=O)NCc3cc(Cl)ccc3Cl)o1)C(C)(C)CCC2(C)C
14 | -40% | 17% | Cc1cc2c(cc1Cc1ccc(C(=O)NCCc3c(Cl)cccc3Cl)o1)C(C)(C)CCC2(C)C
15 | -6% | 16% | Cc1cc2c(cc1Cc1ccc(C(=O)NCc3cccc(C(F)(F)F)c3)o1)C(C)(C)CCC2(C)C
16 | -18% | 5% | Cc1cc2c(cc1Cc1ccc(C(=O)NCCSc3cc(C(F)(F)F)nc4ccccc34)o1)C(C)(C)CCC2(C)C
17 | -10% | -15% | Cc1cc2c(cc1Cc1ccc(C(=O)NCc3c(Cl)cccc3Oc3ccccc3)o1)C(C)(C)CCC2(C)C
18 | -11% | -29% | Cc1cc2c(cc1Cc1ccc(C(=O)NC3c4ccccc4CC3O)o1)C(C)(C)CCC2(C)C (stereo not shown)
19 | -20% | -21% | Cc1cc2c(cc1Cc1ccc(C(=O)N3CCN(c4ccc(C(F)(F)F)cc4[N+](=O)[O-])CC3)o1)C(C)(C)CCC2(C)C

Row | inhibition at 1 µM [1] | inhibition at 1 µM [2] | Compound
20 | -16% | -29% | Cc1cc2c(cc1Cc1ccc(C(=O)N3CCN(c4ncccc4C(F)(F)F)CC3)o1)C(C)(C)CCC2(C)C
21 | -4% | -7% | Cc1cc2c(cc1Cc1ccc(C(=O)N3CCN(c4ccc(C(F)(F)F)cn4)CC3)o1)C(C)(C)CCC2(C)C
22 | -19% | -22% | Cc1cc2c(cc1Cc1ccc(C(=O)N3CCCCC3c3ccccc3)o1)C(C)(C)CCC2(C)C (stereo not shown)
23 | -4% | 11% | Cc1cc2c(cc1Cc1ccc(C(=O)N3CCN(c4ccncc4)CC3)o1)C(C)(C)CCC2(C)C
24 | 3% | 7% | Cc1cc2c(cc1Cc1ccc(C(=O)N3CCN(c4cnccn4)CC3)o1)C(C)(C)CCC2(C)C
25 | -15% | -20% | Cc1cc2c(cc1Cc1ccc(C(=O)N3CCN(c4ccccc4[N+](=O)[O-])CC3)o1)C(C)(C)CCC2(C)C
26 | -5% | 62% | Cc1cc2c(cc1Cc1ccc(C(=O)N3CCN(c4ccccc4C#N)CC3)o1)C(C)(C)CCC2(C)C
27 | -10% | -9% | Cc1cc2c(cc1Cc1ccc(C(=O)NC(C)c3ccc(O)cc3)o1)C(C)(C)CCC2(C)C (stereo not shown)
28 | 11% | 16% | Cc1cc2c(cc1Cc1ccc(C(=O)NCc3ccc(F)c(C(F)(F)F)c3)o1)C(C)(C)CCC2(C)C
29 | -12% | -6% | Cc1cc2c(cc1Cc1ccc(C(=O)N3CCN(c4ccc(O)cc4)CC3)o1)C(C)(C)CCC2(C)C
30 | 15% | 19% | Cc1cc2c(cc1Cc1ccc(C(=O)NCc3ccc(Cl)c(C(F)(F)F)c3)o1)C(C)(C)CCC2(C)C
31 | -11% | -5% | CCN(Cc1cc([N+](=O)[O-])ccc1O)C(=O)c1ccc(Cc2cc3c(cc2C)C(C)(C)CCC3(C)C)o1
32 | -11% | -17% | Cc1cc2c(cc1Cc1ccc(C(=O)N3CCN(c4ccc(Cl)cc4)CC3)o1)C(C)(C)CCC2(C)C
33 | -1% | -7% | Cc1cc2c(cc1Cc1ccc(C(=O)N3CCN(c4ccccc4Cl)CC3)o1)C(C)(C)CCC2(C)C
34 | 2% | 21% | CCN(CCNC(=O)c1ccc(Cc2cc3c(cc2C)C(C)(C)CCC3(C)C)o1)c1cccc(C)c1
35 | 10% | 9% | Cc1cc2c(cc1Cc1ccc(C(=O)N(C)CCc3ccccc3)o1)C(C)(C)CCC2(C)C
36 | 7% | 9% | Cc1cc2c(cc1Cc1ccc(C(=O)N(Cc3ccccc3F)C3CCN(Cc4ccccc4)C3)o1)C(C)(C)CCC2(C)C (stereo not shown)
37 | 11% | 15% | Cc1cc2c(cc1Cc1ccc(C(=O)NC3Cc4ccccc4C3)o1)C(C)(C)CCC2(C)C
38 | -22% | -4% | Cc1cc2c(cc1Cc1ccc(C(=O)N(CCC3CCCN3C)Cc3ccc(Cl)cc3)o1)C(C)(C)CCC2(C)C (stereo not shown)

Row | inhibition at 1 µM [1] | inhibition at 1 µM [2] | Compound
39 | -5% | 6% | Cc1cc2c(cc1Cc1ccc(C(=O)N(CCCO)Cc3ccccc3[N+](=O)[O-])o1)C(C)(C)CCC2(C)C
40 | -5% | 8% | Cc1cc2c(cc1Cc1ccc(C(=O)NCCc3ccc(Cl)c(Cl)c3)o1)C(C)(C)CCC2(C)C
41 | 29% | 32% | CCc1ccc(CCNC(=O)c2ccc(Cc3cc4c(cc3C)C(C)(C)CCC4(C)C)o2)cc1
42 | 28% | 35% | Cc1cc2c(cc1Cc1ccc(C(=O)NC(C)c3ccc(F)cc3)o1)C(C)(C)CCC2(C)C (stereo not shown)
43 | 20% | 28% | Cc1cc2c(cc1Cc1ccc(C(=O)NC(C)c3ccc(Cl)cc3)o1)C(C)(C)CCC2(C)C (stereo not shown)
44 | 13% | 7% | COc1ccc(CCN(C)C(=O)c2ccc(Cc3cc4c(cc3C)C(C)(C)CCC4(C)C)o2)cc1OC
45 | 14% | 20% | Cc1cc2c(cc1Cc1ccc(C(=O)NCCSCc3c(Cl)cccc3Cl)o1)C(C)(C)CCC2(C)C
46 | 14% | 21% | Cc1cc2c(cc1Cc1ccc(C(=O)N(C)Cc3ccccc3Cl)o1)C(C)(C)CCC2(C)C
47 | -12% | 1% | Cc1cc2c(cc1Cc1ccc(C(=O)N3CCN(c4ccc(C(F)(F)F)cc4)CC3)o1)C(C)(C)CCC2(C)C
48 | 38% | 39% | Cc1cc2c(cc1Cc1ccc(C(=O)NC(C)(C)Cc3ccccc3)o1)C(C)(C)CCC2(C)C
49 | 15% | 17% | Cc1cc2c(cc1Cc1ccc(C(=O)N(C)C(C)Cc3ccccc3)o1)C(C)(C)CCC2(C)C (stereo not shown)
50 | 21% | 22% | Cc1cc2c(cc1Cc1ccc(C(=O)NC(C)(C)Cc3ccc(F)cc3)o1)C(C)(C)CCC2(C)C
51 | 28% | 45% | Cc1cc2c(cc1Cc1ccc(C(=O)NC(C)(C)c3ccccc3)o1)C(C)(C)CCC2(C)C
52 | 20% | 22% | Cc1cc2c(cc1Cc1ccc(C(=O)N(C)CC(O)c3ccccc3)o1)C(C)(C)CCC2(C)C (stereo not shown)
53 | 16% | 7% | Cc1cc2c(cc1Cc1ccc(C(=O)NC(CO)CSCc3ccccc3)o1)C(C)(C)CCC2(C)C (stereo not shown)
54 | -2% | 9% | Cc1cc2c(cc1Cc1ccc(C(=O)N(C)CC(O)c3cccc(O)c3)o1)C(C)(C)CCC2(C)C (stereo not shown)
55 | 2% | 4% | Cc1cc2c(cc1Cc1ccc(C(=O)NC(C#N)c3ccc(F)cc3)o1)C(C)(C)CCC2(C)C (stereo not shown)
56 | 27% | 48% | Cc1cc2c(cc1Cc1ccc(C(=O)NCc3ccc(F)cc3Cl)o1)C(C)(C)CCC2(C)C
